Reference: publication PMC12916826 (Nature Communications, 2026)
Where a chain is given by its changes, count along the chain named. Where two headings read alike, the source gives them in different places. Values belong to the compound of their own block, whether it stands above or below them.

Columns and labels:
hGAT3 [1] = target: T1, hGAT3 (Homo sapiens, UniProt P48066); test: [3H]GABA competition uptake assay, wild-type hGAT3 in HEK293T cells; format: cell-based
T1 sequence (P48066 1-632): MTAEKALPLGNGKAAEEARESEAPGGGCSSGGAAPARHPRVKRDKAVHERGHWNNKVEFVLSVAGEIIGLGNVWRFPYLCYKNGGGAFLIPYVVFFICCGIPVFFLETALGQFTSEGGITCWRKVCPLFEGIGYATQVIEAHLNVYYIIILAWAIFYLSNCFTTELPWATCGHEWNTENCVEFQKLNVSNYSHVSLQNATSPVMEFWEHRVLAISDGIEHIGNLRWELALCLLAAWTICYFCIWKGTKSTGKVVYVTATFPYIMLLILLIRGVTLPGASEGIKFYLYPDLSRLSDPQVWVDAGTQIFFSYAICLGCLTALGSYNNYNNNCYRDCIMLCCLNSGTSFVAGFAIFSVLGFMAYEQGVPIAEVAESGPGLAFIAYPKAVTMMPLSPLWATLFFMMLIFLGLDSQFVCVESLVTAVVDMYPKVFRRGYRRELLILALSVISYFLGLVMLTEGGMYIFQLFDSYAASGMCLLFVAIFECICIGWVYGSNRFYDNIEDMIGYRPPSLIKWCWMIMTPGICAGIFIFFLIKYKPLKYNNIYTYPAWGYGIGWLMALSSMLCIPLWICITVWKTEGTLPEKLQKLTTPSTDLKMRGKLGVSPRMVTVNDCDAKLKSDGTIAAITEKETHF

hGAT3-C316S = target: T2, hGAT3-C316S (Homo sapiens, UniProt P48066, C316S); test: [3H]GABA competition uptake assay, hGAT3-C316S mutant in HEK293T cells; format: cell-based
T2 sequence (P48066 1-632 C316S): T1 sequence (P48066 1-632) with C316S

hGAT3 [2] = target: T1, hGAT3; test: [3H]GABA uptake kinetic; format: cell-based; conditions: with and without preincubation
hGAT3 [3] = target: T1, hGAT3; test: FLIPR membrane potential; format: cell-based
hGAT3-eGFP = target: T3, hGAT3-eGFP (Homo sapiens, UniProt P48066); test: Confocal microscopy of membrane-localized hGAT3-eGFP fluorescence; format: cell-based; conditions: 100 µM SR-THAP; 1 h incubation; versus buffer
T3 sequence (P48066 1-632): T1 sequence (P48066 1-632)

[4] = cited from earlier work
[5] = cited from earlier work; remark: listed apart in the source
[6] = cited from earlier work; remark: listed apart in the source
[7] = cited from earlier work; remark: listed apart in the source
mice with stroke = conditions: cited from earlier work

time to equilibrium between extracellular and cytosolic compound (hGAT3 [1]; from preincubation time course): ≤ 15 min
IC50 (hGAT3 [1]; read-out: IC50, inhibition of [3H]GABA uptake by hGAT3, 120 min preincubation (with preincubation), HEK293T cells): 4.9 µM
increase in potency after 120-min preincubation (hGAT3 [1]; versus without preincubation): five-fold
IC50 (hGAT3-C316S; read-out: IC50, inhibition of [3H]GABA uptake by hGAT3-C316S, 120 min preincubation): 10.6 µM
mode of inhibition ([3H]GABA uptake kinetics) (hGAT3 [2]): non-competitive
substrate-like response / transport in FMP assay (hGAT3 [3]; 50 µM GABA, 20 µM SR-THAP, compared with buffer): no substrate-like response
mode of inhibition (FMP Michaelis-Menten kinetics) (hGAT3 [3]; absence of preincubation): non-competitive
surface expression of hGAT3 (membrane-localized eGFP fluorescence) (hGAT3-eGFP): No difference
SMILES: COc1ccc(C(/C=C/CN2CCC[C@@H]2[C@H](O)C(=O)O)(c2ccc(OC)cc2)c2ccc(OC)cc2)cc1 [SR-THAP, (2S, 2′R)−2-hydroxy-2-(1-((E)−4,4,4-tris(4-methoxyphenyl)but-2-en-1-yl)pyrrolidin-2′-yl)acetic acid]

IC50 (hGAT3 [1]): 6.9 µM
IC50 (hGAT3-C316S): 4.2 µM
SMILES: NCCCC(=O)O [GABA, γ-Aminobutyric acid, reference compound]

SMILES: COc1ccc(C(OCCN2CCC[C@H](C(=O)O)C2)(c2ccc(OC)cc2)c2ccc(OC)cc2)cc1 [(S)-SNAP-5114, (S)−1-{2-[Tris(4-methoxyphenyl)methoxy]ethyl}piperidine-3-carboxylic acid]
chemical stability [4]: poor
solubility [5]: limited
brain uptake after systemic administration [6]: limited
cellular toxicity [7]: cellular toxicity
in vivo toxicity (mice with stroke): severe in vivo toxicity
